Data published in PubChem BioAssay (NCI).
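Cultured in 96-well plates, cells were exposed to test compound for 48 hours across five concentrations. TGI denotes the concentration required for complete inhibition of growth.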

Tests used:
Test in all cases: NCI tumour cell line growth inhibition, 48 h
[1] = system: A498 renal
[2] = system: M19-MEL melanoma
[3] = system: OVCAR-8 ovarian
[4] = system: P388 leukemia
[5] = system: P388/ADR leukemia
[6] = system: SN12K1 renal
[7] = system: PC-3 prostate
[8] = system: T-47D breast
[9] = system: LXFL 529 NSCLC
[10] = system: RXF-631 renal
[11] = system: HS 578T breast

Compound | TGI [1] [µM] | TGI [3] [µM] | TGI [7] [µM] | TGI [8] [µM] | also measured
O=C(O)CCCCCCCCC(=O)O | > 23.2 | > 500 |  |  | TGI [2]: > 500 µM; TGI [4]: > 281 µM; TGI [5]: > 500 µM; TGI [6]: > 500 µM
Cc1cc(C)c(/C=C(\C(=C/c2c(C)cc(C)cc2C)[N+](=O)[O-])[N+](=O)[O-])c(C)c1 |  |  | > 100 | > 100 | 
O=C1c2cccc(O)c2C(=O)c2c(O)cc(CO)cc21 | > 100 |  |  |  | TGI [9]: > 100 µM; TGI [10]: > 100 µM
O=S1(=O)C[C@@H](NCc2ccccc2)[C@H](NCc2ccccc2)C1 |  | > 100 | > 100 | > 100 | TGI [11]: > 100 µM
